This is an account of results in ChEMBL document CHEMBL5241092, “The antibacterial activity of fluoroquinolone derivatives: An update (2018-2021)” (2021).

Experiment [1] deals with Escherichia coli. The experiment is described as follows: Antibacterial activity against ciprofloxacin resistant Escherichia coli. The class given is functional.
The test system of experiment [2] is Staphylococcus aureus. The experiment is described as follows: Antibacterial activity against ciprofloxacin resistant Staphylococcus aureus. The class given is functional.
For experiment [3], the system named is Staphylococcus aureus. As to the kind of experiment: Potency index, ratio of levofloxacin MIC to test compound MIC for antibacterial activity against fluoroquinolone/methicillin resistant Staphylococcus aureus. The class given is functional.
The test system of experiment [4] is Staphylococcus aureus. As to the kind of experiment: Antibacterial activity against fluoroquinolone sensitive Staphylococcus aureus. The class given is functional.
The test system of experiment [5] is Escherichia coli. The experiment is described as follows: Antibacterial activity against quinolone susceptible Escherichia coli. The class given is functional.
Experiment [6] concerns Pseudomonas aeruginosa. The experiment is described as follows: Antibacterial activity against quinolone susceptible Pseudomonas aeruginosa. Format: functional.
Experiment [7] concerns Staphylococcus aureus. The experiment is described as follows: Antibacterial activity against methicillin resistant Staphylococcus aureus. Format: functional.
For experiment [8], the system named is Staphylococcus aureus. As to the kind of experiment: Potency index, ratio of ciprofloxacin MIC to test compound MIC for antibacterial activity against methicillin resistant Staphylococcus aureus. The class given is functional.
In experiment [9] the test system is Staphylococcus aureus. The experiment is described as follows: Antibacterial activity against Staphylococcus aureus. The class given is functional.
The subject of experiment [10] is Staphylococcus aureus. As to the kind of experiment: Potency index, ratio of ciprofloxacin MIC to test compound MIC for antibacterial activity against Staphylococcus aureus. Format: functional.
In experiment [11] the test system is Staphylococcus aureus. The experiment is described as follows: Antibacterial activity against fluoroquinolone/methicillin resistant Staphylococcus aureus. Format: functional.
A further experiment concerns Klebsiella pneumoniae. As to the kind of experiment: Antibacterial activity against Klebsiella pneumoniae. The class given is functional.
A further experiment concerns Chlamydia trachomatis. As to the kind of experiment: Antibacterial activity against Chlamydia trachomatis. Format: functional.
The next experiment relates to Acinetobacter baumannii. The experiment is described as follows: Antibacterial activity against quinolone resistant Acinetobacter baumannii. The class given is functional.
A further experiment deals with Enterobacter. As to the kind of experiment: Antibacterial activity against Enterobacter. Format: functional.
The subject of experiment [12] is Pseudomonas aeruginosa. As to the kind of experiment: Antibacterial activity against Pseudomonas aeruginosa. The class given is functional.
A further experiment deals with Enterococcus faecium. As to the kind of experiment: Antibacterial activity against Enterococcus faecium. The class given is functional.
The subject of experiment [13] is Escherichia coli. As to the kind of experiment: Antibacterial activity against Escherichia coli. Format: functional.
Another experiment concerns Bacillus subtilis. As to the kind of experiment: Antibacterial activity against Bacillus subtilis. Format: functional.
A further experiment has as its system Serratia marcescens. As to the kind of experiment: Antibacterial activity against Serratia marcescens. Format: functional.
In experiment [14] the test system is Staphylococcus epidermidis. The experiment is described as follows: Antibacterial activity against Staphylococcus epidermidis. Format: functional.
The subject of experiment [15] is Escherichia coli. The experiment is described as follows: Antibacterial activity against Escherichia coli UTI89. The class given is functional.
Experiment [16] deals with Escherichia coli. The experiment is described as follows: Antibacterial activity against Escherichia coli CFT073. Format: functional.
Experiment [17] in a line: Antibacterial activity against Salmonella typhi. The conditions noted are these: Salmonella enterica. Format: functional, Salmonella enterica subsp. enterica serovar Typhimurium.
The next experiment has as its system Shigella flexneri. As to the kind of experiment: Antibacterial activity against Shigella flexneri. Format: functional.
Another experiment deals with Citrobacter freundii. The experiment is described as follows: Antibacterial activity against Citrobacter freundii. Format: functional.
The subject of another experiment is Vibrio cholerae. As to the kind of experiment: Antibacterial activity against Vibrio cholerae. The class given is functional.

In brackets after ≈: the same amount, converted by molar mass.

`Cc1nc(Cl)nc(N2CCN(c3cc4c(cc3F)c(=O)c(C(=O)O)cn4C3CC3)CC2)c1N`: the MIC in the experiment with Escherichia coli [1] and with Staphylococcus aureus [2] was 7.4 mg/L (≈ 15.6 µM) each time.

Turning to `C[C@H]1COc2c(N3C4CCC3CC(O)C4)c(F)cc3c(=O)c(C(=O)O)cn1c23` (stereo partly drawn), the Ratio in the experiment on Staphylococcus aureus [3] came to 4. The same compound had an MIC against Staphylococcus aureus [4] of at most 0.5 mg/L.

`CNC1CN(c2c(F)cc3c(=O)c(C(=O)O)cn(-c4cc(N)c(F)cc4CO)c3c2Cl)C1`: the MIC against Escherichia coli [5] and with Pseudomonas aeruginosa [6] was 0.008 mg/L (≈ 0.0172 µM) throughout.

As to `O=C(O)c1cn(C2CC2)c2cc(N3CCN(Cc4nc5ccccc5c(=O)[nH]4)CC3)c(F)cc2c1=O`, the MIC in the experiment on Staphylococcus aureus [7] and in the experiment with Staphylococcus aureus [9] was 0.016 mg/L (≈ 0.0327 µM) each time. Moreover, the Ratio with Staphylococcus aureus [8] stood at 60; in the experiment with Staphylococcus aureus [10], 30.

Take `CC(Cl)C(=O)OC1CC2CCC(C1)N2c1c(F)cc2c(=O)c(C(=O)O)cn3c2c1OC[C@@H]3C` (stereo partly drawn): the Ratio in the experiment with Staphylococcus aureus [3] is listed as 4. The MIC against Staphylococcus aureus [11] and against Staphylococcus aureus [4] was at most 0.5 mg/L each time.

In the case of `COc1c(N2CCN(C(=O)c3ccc4cccc(O)c4n3)CC2)c(F)cc2c(=O)c(C(=O)O)cn(C3CC3)c12`, the MIC in the experiment with Klebsiella pneumoniae, against Chlamydia trachomatis, in the experiment with Acinetobacter baumannii, in the experiment on Enterobacter, in the experiment with Pseudomonas aeruginosa [12] and in the experiment with Staphylococcus aureus [9] was at most 0.06 mg/L throughout. Moreover, the MIC against Enterococcus faecium was at most 0.06 mg/L. In the experiment on Chlamydia trachomatis, the minimal bactericidal concentration (MBC) was 2 mg/L (≈ 3.76 µM).

Consider `O=C(CN1CCN(c2cc3c(cc2F)c(=O)c(C(=O)O)cn3-c2ccc(F)cc2)CC1)c1ccc(Cl)cc1`, for which the MIC (against Escherichia coli [13]; with Klebsiella pneumoniae; with Bacillus subtilis; in the experiment with Serratia marcescens; in experiment [14]; against Pseudomonas aeruginosa [12]) was 0.5 mg/L (≈ 0.929 µM) throughout. Moreover, inhibition of growth in the experiment on Staphylococcus aureus [9] (MIC) required 0.5 mg/L (≈ 0.929 µM).

As for `CC(=O)c1cn(C2CC2)c2cc(N3CCN(C(=O)CCCCCNC(=O)c4cc(O)c(O)c(C(=O)N[C@H]5COC(=O)[C@@H](NC(=O)c6cccc(O)c6O)COC(=O)[C@@H](NC(=O)c6cccc(O)c6O)COC5=O)c4)CC3)c(F)cc2c1=O`, the MIC with Escherichia coli [15] and with Escherichia coli [16] was 0.1 mg/L (≈ 0.0879 µM) in each case.

Consider `O=C(O)c1cn(C2CC2)c2cc(N3CCN(CN4c5ccccc5C(=O)N(c5ccc(Br)cc5)C4c4ccccc4)CC3)c(F)cc2c1=O` (stereo not drawn), for which the MIC (in experiment [17]; against Shigella flexneri; in the experiment with Klebsiella pneumoniae; with Citrobacter freundii; in the experiment with Vibrio cholerae; in experiment [14]) was 0.1 mg/L (≈ 0.138 µM) each time. The MIC in the experiment with Pseudomonas aeruginosa [12] and against Staphylococcus aureus [9] was 0.1 mg/L (≈ 0.138 µM) each time.

A word on the MIC: it is the least concentration at which growth counts as inhibited. A low value points to a more susceptible organism. For orientation: MBC means the smallest concentration meeting the test's criterion for killing. Read a low MBC as more potent killing.
